This is an account of results in patent US20210401827A1 (priority 2018, published 2021).

The conditions of data set [1]: in vivo; cited from earlier work.
For data set [2] the following is noted: human, in vivo.
The conditions of data set [3]: human, in vivo. This is another data set of the same source.

Like-named read-outs stand apart in the source and are kept apart here.

For `C=C1CC[C@@]2(O)[C@H]3Cc4ccc(O)c5c4[C@@]2(CCN3CC2CC2)[C@H]1O5` [Nalmefene, 17-cyclopropylmethyl-4,5α-epoxy-6-methylenemorphinan-3,14-diol], in data set [1], the “adverse events with an incidence less than 1%” value was “bradycardia, arrhythmia, diarrhea, dry mouth, somnolence, depression, agitation, nervousness, tremor, confusion, withdrawal syndrome, myoclonus, pharyngitis, pruritus, and urinary retention”; the “common adverse reactions with an incidence greater than 1%” value was “nausea, vomiting, tachycardia, hypertension, postoperative pain, fever, dizziness, headache, chills, hypotension, and vasodilation”. The compound further gave a Lambda z in data set [2] of 0.094 h⁻¹. In data set [2] (im, 1.5 mg), this compound yielded an AUCextrap of 22.6% and a Cmax/D of 1.12 ng/mL/mg.
For the compound `O=C1CC[C@@]2(O)[C@H]3Cc4ccc(O)c5c4[C@@]2(CCN3CC2CC2)[C@H]1O5` [Naltrexone, 17-(cyclopropylmethyl)-4,5α-epoxy-3,14-dihydroxymorphinan-6-one], the λz in data set [3] is 0.361 h⁻¹. In addition, in data set [3] (im, 2 mg), the AUCextrap came out at 1.01% and the Cmax/Dose came to 2.27 ng/mL/mg.
